# Test system: antibody recognizing the core peptide of the hinge region in IgA1 (IgG class, serum of patient with IgA nephropathy)
# Assay: Assay of inhibitory activities of various synthetic peptides (enzyme immunoassay: patient serum pre-incubated with peptide, then reacted with immobilized IgA1 hinge core peptide-BSA antigen)
# Format: binding
# Details: synthetic peptide 1 μg/ml in PBS mixed 1:1 with 1/50 diluted serum, room temperature 3 hours; peroxidase labeled anti-human IgG; absorbancy at 490 nm
# Experimental: Antigen was prepared according to the method described in the above example 1 (1).
# The above antigen solution was dissolved to […] in 0.015 M carbonate buffer (pH 9.6) and each 100 μl was added in each well of the 96 well microtiter plate (A Flow General Co., Linbro/Titertek EIA Microtitration plate, Cat. No. 76-381-04), then incubated at 4° C. overnight (standing culture).
# PBS (0.01 M phosphate buffer, pH 7.5 containing 0.15 M NaCl) solution (200 μl) containing 1% bovine serum albumin (fraction V, purchased from SIGMA Inc.) was added in each well, and incubated at 4° C. overnight. Each well was washed with 200 μl of PBS. The antigen was immobilized.
# Synthetic peptide [the core peptide constructing a part of the hinge region in IgA1 as follows:
# was dissolved to 1 μg/ml with PBS. The above diluted serum of patient with IgA nephropathy and the solution of synthetic peptide were mixed in equal volume (1:1). Also the above diluted serum of patient with IgA nephropathy and PBS without containing synthetic peptide (hereinafter designated as blank solution) were mixed in equal volume (1:1). These mixtures were incubated at room temperature for 3 hours.
# After termination of the incubation, each solution (100 μl) was added in each well, which was provided with the antigen immobilized therein, of the 96 well microtiter plate and incubated at room temperature for 3 hours.
# Each well was washed three times with 200 μl of PBS containing 0.1% bovine serum albumin, 0.05% Tween-20 (hereinafter designated as PS/BSA/Tween).
# A solution (100 μl) of peroxidase labeled anti-human IgG (purchased from Organon Tecknika Inc.), which was diluted to 1/200 with PBS, was added in each well.
# After incubation at room temperature for 1 hour, each well was washed three times with PS/BSA/Tween (200 μl).
# Coloring agent (100 μl)(orthophenylenediamine 20 mg, sodium […]·12H2O 1.795 g, citric acid 0.525 g, and hydrogen peroxide 15 μl were dissolved in water 50 ml) was added in each well, and incubated at room temperature for 1 hour.
# After the incubation was terminated, absorbency at 490 nm was measured using microplate reader (Bio-Red Inc., Microplate reader Model 450).
row,Substance,inhibitory action on the reaction of patient serum with the core peptide of the hinge region in IgA1
1,Pro Ser Thr Pro Pro (PSTPP) [core peptide constructing a part of the hinge region in IgA1],inhibitory action on the reaction was observed
2,"Thr Pro Val Glu Ser (TPVES; listed as Bovine sp.) [core peptide constructing a part of the bovine serum albumin, reference compound]",no inhibitory action on the reaction was observed
3,"Thr Pro Asp Glu Thr (TPDET; listed as Bovine sp.) [core peptide constructing a part of the bovine serum albumin, reference compound]",no inhibitory action on the reaction was observed
4,Pro Val Pro Ser Thr (PVPST) [core peptide constructing a part of the hinge region in IgA1],inhibitory action on the reaction was observed
5,Pro Ser Pro Ser Thr (PSPST) [core peptide constructing a part of the hinge region in IgA1],inhibitory action on the reaction was observed
6,Pro Thr Pro Ser Pro (PTPSP) [core peptide constructing a part of the hinge region in IgA1],inhibitory action on the reaction was observed
7,Thr Pro Pro Thr Pro (TPPTP) [core peptide constructing a part of the hinge region in IgA1],inhibitory action on the reaction was observed
8,"Leu Pro Pro Leu Thr (LPPLT; listed as Bovine sp.) [core peptide constructing a part of the bovine serum albumin, reference compound]",no inhibitory action on the reaction was observed
9,"Ser Pro Asp Leu Pro (SPDLP; listed as Bovine sp.) [core peptide constructing a part of the bovine serum albumin, reference compound]",no inhibitory action on the reaction was observed
10,"Leu Lys Pro Asp Pro (LKPDP; listed as Bovine sp.) [core peptide constructing a part of the bovine serum albumin, reference compound]",no inhibitory action on the reaction was observed
11,Pro Ser Pro Ser Cys (PSPSC) [core peptide constructing a part of the hinge region in IgA1],inhibitory action on the reaction was observed

# Reference: US6429024B1, “Test method for IgA nephropathy” (Asahi Kasei Kabushiki Kaisha, priority 1998, dated 2002)
